Results: article PMC5978884, “Dissection of the antimicrobial and hemolytic activity of Cap18: Generation of Cap18 derivatives with enhanced specificity” (PLoS ONE, 2018)
Read-outs that look alike come from different tables or passages of the source. Where no end group is shown, it is not given here.

What was measured:
[1] = test system: Salmonella enterica serovar Typhimurium LT2; assay: microbe, parasite or virus in culture; type: cell-based; settings: LT2
Method: (§1) All strains were grown in Mueller-Hinton-II medium, except L. monocytogenes which was grown in BHI medium and L. lactis which was grown in MRS medium. Incubation took place aerobically at 37°C, except for Y. ruckeri and A. salmonicida, which were grown aerobically at RT (20 °C), and L. lactis grown aerobically at 30°C. All plates were incubated for 16–21 hours.
(§2) The minimum inhibitory concentrations (MICs) of the AMPs were measured in 96-well microtiter plates according the Clinical and Laboratory Standards Institute (CLSI, formerly National Committee for Clinical Laboratory Standards [NCCLS]). Briefly, liquid Mueller-Hinton-II medium containing increasing concentrations of AMPs is inoculated with a defined number of cells (approx. 10^5 CFUs/ml) in 96-well microtiter plates (polypropylene), whereas each plate also includes a positive growth control and a negative control (sterile control). The range of peptide concentrations analyzed was 0.125–64 μg/ml for the high purity peptides and 0.06–32 μg/ml for peptides of the variant library. After incubation, the MIC is determined by the lowest concentration showing no visible growth. All plates were incubated for 16–20 hours. The MIC of the reference antibiotics was determined by the use of Sensititre panels (Trek Diagnostic Systems Ltd, East Grinstead, UK).

[2] = test system: Aeromonas salmonicida ATCC33658; assay: microbe, parasite or virus in culture; type: cell-based; settings: ATCC33658
Method: as §1, §2

[3] = test system: Yersinia ruckeri 392/2003; assay: microbe, parasite or virus in culture; type: cell-based
Method: as §1, §2

[4] = test system: Pseudomonas aeruginosa ATCC27853; type: cell-based
Method: as §1, §2

[5] = test system: Lactococcus lactis IL1403; type: cell-based
Method: as §1, §2

[6] = test system: Escherichia coli ATCC25922; type: cell-based
Method: as §1, §2

[7] = test system: Enterococcus faecalis ATCC29212; type: cell-based
Method: as §1, §2

[8] = test system: Listeria monocytogenes N22-2; type: cell-based
Method: as §1, §2

[9] = test system: all the tested bacterial species including Gram-positive and Gram-negative bacteria
Method: as §2, with “The range of peptide concentrations analyzed was 0.125–64 μg/ml for the high purity peptides and 0.06–32 μg/ml for peptides of the variant library.” left out
To identify Cap18 variant peptides with changed species specificity, the antimicrobial screening data of Y. ruckeri, A. salmonicida, S. Typhimurium and L. lactis was compared.
In addition, three Cap18 derivatives harboring either a I13F, I13M or G26T substitution were ordered as positive controls. […] The antimicrobial activity of the highly pure peptides was determined by measuring the MIC value of each derivative against the four test strains Y. ruckeri, A. salmonicida, S.Typhimurium and L. lactis (Table 6). […] In addition to the additional screening strains, a wider range of relevant pathogens including Gram-positive and Gram-negative bacteria was analyzed for targeted antimicrobial activity.

[10] = previous study; cited from earlier work
From the text: It must be expected that AMPs during evolution have evolved towards a high general activity against multiple microorganisms. In this study, we address the issues of species specificity, hemolytic activity and antimicrobial activity of Cap18, a α-helical peptide of the cathelicidin family.

horse erythrocytes = test system: horse erythrocytes; set-up: method as in PMID 26656394; settings: cited from earlier work

| Sequence | MIC S. Typhimurium LT2 [1] [µg/mL] | MIC A. salmonicida ATCC33658 [2] [µg/mL] | MIC Y. ruckeri 392/2003 [3] [µg/mL] | MIC P. aeruginosa ATCC27853 [4] [µg/mL] | MIC L. lactis IL1403 [5] [µg/mL] | MIC E. coli ATCC25922 [6] [µg/mL] | MIC E. faecalis ATCC29212 [7] [µg/mL] | MIC L. monocytogenes N22-2 [8] [µg/mL] | MIC against all the tested bacterial species [9] [µg/mL] | MIC S. Typhimurium [1] [µg/mL] | MIC A. salmonicida [2] [µg/mL] | MIC Y. ruckeri [3] [µg/mL] | MIC Y. ruckeri 392/2003 ([3]; high purity peptides, Mueller-Hinton-II, RT (20 °C), 0.125–64 μg/ml, triplicates) [µg/mL] | Thermostability [10] | MIC L. lactis [5] [µg/mL] | Hemolytic activity in vitro (horse erythrocytes) |
| --- | --- | --- | --- | --- | --- | --- | --- | --- | --- | --- | --- | --- | --- | --- | --- | --- |
| GLRKRLRKFRNKDKEKLKKIGQKIQGLLPKLAPRTDY [Peptide 3] | ≥64 | ≥64 | ≥64 | ≥64 | ≥64 | ≥64 | ≥64 | 32 to 64 | ≥ 32 | – | – | – | – | – | – | – |
| GLRKRLRKFRNKIKEKLKKIGQKDQGLLPKLAPRTDY [Peptide 26] | ≥64 | ≥64 | ≥64 | ≥64 | ≥64 | ≥64 | ≥64 | ≥64 | ≥ 32 | – | – | – | – | – | – | – |
| GLRKRLRKFRNKIKEKLKKIGQKIQGLLPKLAPRTDY [Cap18] | 4 to 8 | 4 | – | 4 to 8 | 1 to 2 | 4 to 8 | 8 | 4 | – | 2 to 4 | 2 | 2 | 2 to 4 | highly thermostable | 2 to 4 | no hemolytic activity |
